Read-outs that look alike come from different tables or passages of the source.

Series [1] deals with epidermal growth factor receptor (EGFR). The conditions noted are these: cited from earlier work.
The conditions of series [2]: reference standard; cited from earlier work.
The target in series [3] is EGFR protein ECD (Homo sapiens, UniProt P00533). In words: Surface plasmon resonance with immobilized EGFR. In kind it is binding. The note with it: analyte 0–300 μM.

Regarding YHWY-GYTPQNVI [GE11], the “affinity for EGFR” value in series [1] (both in vitro and in vivo) is recorded as “high affinity”. Take `CN(C)c1ccc2nc3ccc(=[N+](C)C)cc-3sc2c1` [methylene blue]: the “ΦF (fluorescence quantum yield)” value in series [2] was 0.035. As for cyclo(K(N3)larllt), the “affinity for EGFR” value in series [1] is on record as “high affinity”.

Consider LARLLT [D4], for which, in series [1] (both in vitro and in vivo), the “affinity for EGFR” value is on record as “high affinity”.

Regarding “8-(3,5-Dimethoxyphenyl)-bis(3-p-isothio-cyanato phenyl)-BODIPY [BODIPY 10]”, the “specificity of binding to EGFR ECD (sensorgrams)” value in series [3] was “nonspecific binding or weak binding”.

These data come from publication PMC6693348 (Journal of medicinal chemistry, 2019).
